Test results: US20230151373A1, “CHIMERIC POLYPEPTIDE FOR REGULATING IMMUNE CELLS” (STICHTING HET NEDERLANDS KANKER INSTITUUT-ANTONI VAN …, priority 2019, published 2023)
“Also recorded” adds a separate entry of the source.

Key:
[1] = test system: primary human T cells modified with the HLA class I restricted CDK4 TCR; assay: Cytokine release and degranulation assay, CDK4 TCR T cells co-cultured with CDK4 peptide loaded T2 cells; format: cell-based
Description: (§1) For use as T cell targets, T2 and CBH 5477 cells were loaded with the indicated concentrations of HLA-A*02:01 restricted mutant CDK4 peptide (ALDPHSGHFV), HLA A*02:01 restricted NY-ESO-1 peptide (SLLMWITQA), or HLA-DR1 restricted CMV peptide (KYQEFFWDANDIYRI) in IMDM for 1 hour at 37° C. Cells were then washed once and used in co-culture experiments.
(§2) T cells and NK cells were pretreated with the indicated concentrations of asunaprevir (MedChemExpress, #HY-14434), grazoprevir (MedChemExpress, #HY-15298), dTAG-13 (Tocris, #6605) or DMSO control in T cell media (RPMI/10% human serum/penicillin-streptomycin, 100 IU/ml IL2 and 5 ng/ml IL15) or NK cell media (RPMI/8% FCS/penicillin-streptomycin, 500 IU/ml IL2), respectively, for 24 hours before co-culture experiments. 100,000 T cells or NK cells and 100,000 of indicated tumor cells were mixed in T cell or NK cell media supplemented with golgi-plug (1:1000 dilution, BD, #51-2301KZ) and anti-LAMP1-APC (1:100 dilution, Biolegend, #328620) in the presence of indicated drugs or DMSO control in 96-well plates and incubated for 5 hours at 37° C.
(§3) After incubation, cells were washed once with PBS and stained with IR dye (Invitrogen, #L34976) at 1:400 dilution for 5 minutes at 4° C. Subsequently, cells were washed once with FACS buffer (PBS plus 0.5% BSA) and stained with anti-CD8-PerCP Cy5.5 (1:20 dilution, BD, #341050), anti-CD4 BV711 (1:50 dilution, Biolegend, #317440), anti-murine constant TCR-PE (in experiments with transduced TCRs, 1:200 dilution, BD, #553172) or cetuximab-PE (in experiments with transduced CAR construct containing truncated human EGFR reporter, 1:200 dilution, R&D Systems, #FAB9577P) for 20 minutes at 4° C. Cells were then washed once with FACS buffer and fixed with BD fixation and permeabilization solution (#51-2090KZ) for 20 minutes at 4° C.
(§4) Following permeabilization, cells were washed twice with BD perm/wash buffer (#51-2091KZ) and stained with anti-IFNγ-BV421 (1:100 dilution, BD, #564791), anti-IL-2-PE-Cy7 (1:100 dilution, BD, #560707) and anti-TNFα-BV650 (1:100 dilution, Biolegend, #502938) diluted in perm/wash buffer for 20 min at 4° C. Cells were then washed twice, resuspended in 100 μl FACS buffer and analyzed directly on a Fortessa Special Order analyzer. Data were analyzed using FlowJo and Prism 7 software.

[2] = test system: anti-CD19-CD28-CD3ζ chain CAR modified human T cells; assay: Cytokine release and degranulation assay, anti-CD19-CD28-CD3ζ CAR T cells co-cultured with Raji or Daudi; format: cell-based; conditions: co-culture with CD19 positive Raji or Daudi; 10 μM asunaprevir
Description: as §2
(§5) After incubation, cells were washed once with PBS and stained with IR dye (Invitrogen, #L34976) at 1:400 dilution for 5 minutes at 4° C. […]
as §4

[3] = test system: CD8 T cells modified with an NY-ESO-1 shared antigen specific TCR; assay: Cytokine release and degranulation assay, NY-ESO-1 TCR T cells co-cultured with NY-ESO-1 peptide loaded T2 cells; format: cell-based, human; conditions: 10 μM asunaprevir
Description: as §1
T cells and NK cells were pretreated with the indicated concentrations of asunaprevir (MedChemExpress, #HY-14434), grazoprevir (MedChemExpress, #HY-15298), dTAG-13 (Tocris, #6605) or DMSO control in T cell media (RPMI/10% human serum/penicillin-streptomycin, 100 IU/ml IL2 and 5 ng/ml IL15) or NK cell media (RPMI/8% FCS/penicillin-streptomycin, 500 IU/ml IL2), respectively, for 24 hours before co-culture experiments. […]
as §4

[4] = test system: primary human T cells modified with the CDK4 TCR; assay: Cytokine release and degranulation assay, CDK4 TCR T cells with SMASh or FKBP12^F36V switch co-cultured with NKIRTIL006 tumor cells; format: cell-based
Description: as §2, §5, §4

NKIRTIL006 tumor cells = assay: 51Cr release cytotoxicity assay; format: cell-based, human; conditions: 0.5 μM dTAG-13 vs DMSO
Description: Culture media of Zap70-PD1-FKBP^F36V expressing cells is supplemented with 0.5 μM dTAG-13 PROTAC starting one day before cell sorting until 4 days before ^51Cr assay. Primary human T cells modified with the CDK4 TCR plus either the Zap70-PD1-FKBP^F36V switch or IRES-EGFP vector control were sorted on a Beckman Coulter Moflo Astrios using an 80 μM nozzle. Cells were cultured in standard T cell culturing conditions in RPMI/10 human serum/penicillin-streptomycin 100 IU/ml IL-2 and 5 ng/ml IL-15 for 7 days.
After this, cells were expanded using a rapid expansion protocol (REP). […] At day 6, culture media is refreshed with 3000 IU/ml IL-2 containing media and cultures were split into 2 every 3 days with media containing IL-2 (3000 IU/ml final concentration). At day 12, cells were switched to standard T cell culturing conditions (RPMI/10% human serum/penicillin-streptomycin/100 IU/ml IL-2 and 5 ng/ml IL-15) for 3 days, until use in ^51Cr assays.
One day prior to ^51Cr assay, T cells were pretreated with 0.5 μM dTAG-13 PROTAC or DMSO in standard T cell culturing conditions in RPMI/10% human serum/penicillin-streptomycin/100 IU/ml IL-2 and 5 ng/ml IL-15. 5×10^5 tumor cells were resuspended in 100 μl media, mixed gently with 100 ρCi ^51Cr and then incubated at 37° C. for 45 minutes. […]

NK cell line KHYG-1 = assay: Cytokine release assay, KHYG-1 NK cells co-cultured with K562 tumor; format: cell-based, human; conditions: Zap70-PD1-FKBP12^F36V switch; 0.5 μM dTAG-13
Description: Human NK cell line KHYG-1 (DSMZ, Leibniz, Germany) was cultured in RPMI supplemented with 8% FBS and penicillin-streptomycin (100 IU/ml penicillin, 100 μg/ml streptomycin) containing 500 IU/ml IL-2 (Novartis). All cell lines were tested for mycoplasma using PCR based screening (Young et al, Nat Protoc. 2010 May; 5(5):929-34) and found negative.
24-well non treated cell culture plates were covered with 10 μg/ml retronectin (Takara, #T100B) overnight at 4° C. The next day, the retronectin solution was removed and wells were blocked with 2% BSA (Sigma-Aldrich, A9418-500g) in PBS for 30 minutes. […]
as §4

[5] = test system: primary human T cells modified with the CDK4 TCR and Zap70-PD1-zinc finger degrons; assay: IMiD regulation of zinc finger degron CRASH-IT switches, CDK4 TCR T cells co-cultured with NKIRTIL006 tumor cells; format: cell-based; conditions: for restoration of activity levels (cytokine production, cell surface LAMP-1) by IMiD: IKZF1-based CRASH-IT switch (IKZF1 ZF2-ZF3 degron)
Description: Constructs containing various zinc finger degrons in MP71 Zap70-PD1-Zinc finger IRES-EGFP format were created using IKZF1 ZF2-3 degron containing sequence (Q13422, 141-197 aa), or IKZF3 ZF2-3 degron containing sequence (Q9UKT9, 142-198 aa), or ZFP91 ZF4-5 degron containing sequence (Q96JP5, 396-455 aa), ZNF276 ZF4-5 degron containing sequence (Q8N554, 520-579 aa), ZNF653 ZF4-5 degron containing sequence (Q96CK0, 552-611 aa), or ZNF692 ZF4-5 degron containing sequence (Q9BU19, 413-473 aa). For CRASH-IT switches encoding hybrid zinc finger degrons, the IKZF1 ZF2 beta turn sequence (FQCNQCGASFT) was replaced with beta turn sequences from ZNF653 ZF4 (LQCEICGYQCR), ZFP91 ZF4 (LQCEICGFTCR), ZNF276 ZF4 (LQCEVCGFQCR), or ZNF827 ZF1 (FQCPICGLVIK). For the CRASH-IT switch encoding ZFP91/IKZF1 hybrid zinc finger without IKZF1 ZF3 (single ZF), the IKZF1 ZF3 containing sequence (Q13422, 170-197 aa) was deleted from the Zap70-PD1-ZFP91/IKZF1 hybrid zinc finger (double ZF) construct.
as §2
as §3, with “Cells were then washed once with FACS buffer and fixed with BD fixation and permeabilization solution (#51-2090KZ) for 20 minutes at 4° C.” left out
as §4

[6] = Zap70-PD1-SMASh T cells, 10 μM asunaprevir relative to DMSO-treated cells, peptide-loaded target cells (10 nM)

What does the source list for `C=C[C@@H]1C[C@]1(NC(=O)[C@@H]1C[C@@H](Oc2ncc(OC)c3ccc(Cl)cc23)CN1C(=O)[C@@H](NC(=O)OC(C)(C)C)C(C)(C)C)C(=O)NS(=O)(=O)C1CC1` [asunaprevir]?
boost of CD8+ T cell activation, IFNγ [1, 6]: 8.8 fold; boost of CD8+ T cell activation, IL2 [1, 6]: 11.5 fold; boost of CD8+ T cell activation, TNFα [1, 6]: 6.3 fold; boost of CD8+ T cell activation, cell surface LAMP1 expression [1, 6]: 6.6 fold; drug effect on inhibition of T cell function by Zap70-PD1-SMASh ([1]; primary human CD8 and CD4 T cells with Zap70-PD1-SMASh): reverted; also recorded: dose dependent recovery; effector functions of Zap70-PD1-SMASh fusion protein-negative T cells (vector control) ([1]; vector control T cells, protease inhibitor): unaltered; T cell functions of CAR T cells with Zap70-PD1-SMASh upon drug addition [2]: recovered; functional activity of NY-ESO-1 TCR CD8 T cells with CRASH-IT switch upon drug addition [3]: restored

What does the source list for `CC[C@H](C(=O)N1CCCC[C@H]1C(=O)O[C@H](CCc1ccc(OC)c(OC)c1)c1ccccc1OCC(=O)NCCCCCCOc1cccc2c1C(=O)N(C1CCC(=O)NC1=O)C2=O)c1cc(OC)c(OC)c(OC)c1` (some centres unmarked) [dTAG-13]?
reactivation of T cell function at high drug concentrations ([4]; FKBP12^F36V/dTAG-13 based switches, high drug concentrations): suboptimal reactivation of T cell function; concentration at which activation of CRASH-IT platform peaks ([4]; small-molecule titration, Zap70-PD1-FKBP12^F36V (dTAG-13) or Zap70-PD1-SMASh (HCV NS3/4A inhibitors)): around 0.5 μM; cytotoxic activity of control vector-modified T cells (NKIRTIL006 tumor cells): unaltered; killing of 51Cr loaded NKIRTIL006 tumor cells by sorted CD8 cells with Zap70-PD1-FKBP12^F36V (NKIRTIL006 tumor cells): increased killing; suppression of NK cell cytokine production in the presence of drug (NK cell line KHYG-1): reversed

With `Nc1cccc2c1CN(C1CCC(=O)NC1=O)C2=O` (centres unmarked) [lenalidomide] as the compound, how does the “restoration of activity levels (cytokine production, cell surface LAMP-1) by IMiD” value (shortened to “restoration of activity levels”) [5] read?
Its value is “robustly restored”.

For `Nc1cccc2c1C(=O)N(C1CCC(=O)NC1=O)C2=O` (centres unmarked) [pomalidomide], which “restoration of activity levels” value [5] is on record?
Its value is “robustly restored”.

How did the “restoration of activity levels” value [5] turn out when `O=C1CCC(N2C(=O)c3ccccc3C2=O)C(=O)N1` (centres unmarked) [thalidomide] was run?
Its value is “lesser”.

And the “reduction of thalidomide concentration required for the same level of cytokine production (IFNγ, IL-2, or TNFα) or surface LAMP-1 expression” value ([5]; T cells expressing the chimeric degrons as compared to the parental IKZF1 ZF2-3 degron)?
Its value is “around 1,000 fold”.
